SMILES strings stand for the structures.

This test concerns the target T1, CvATA (Chromobacterium violaceum, UniProt Q7NWG4).
T1 construct: gene CV_2025; dimer
T1 sequence (Q7NWG4 1-459): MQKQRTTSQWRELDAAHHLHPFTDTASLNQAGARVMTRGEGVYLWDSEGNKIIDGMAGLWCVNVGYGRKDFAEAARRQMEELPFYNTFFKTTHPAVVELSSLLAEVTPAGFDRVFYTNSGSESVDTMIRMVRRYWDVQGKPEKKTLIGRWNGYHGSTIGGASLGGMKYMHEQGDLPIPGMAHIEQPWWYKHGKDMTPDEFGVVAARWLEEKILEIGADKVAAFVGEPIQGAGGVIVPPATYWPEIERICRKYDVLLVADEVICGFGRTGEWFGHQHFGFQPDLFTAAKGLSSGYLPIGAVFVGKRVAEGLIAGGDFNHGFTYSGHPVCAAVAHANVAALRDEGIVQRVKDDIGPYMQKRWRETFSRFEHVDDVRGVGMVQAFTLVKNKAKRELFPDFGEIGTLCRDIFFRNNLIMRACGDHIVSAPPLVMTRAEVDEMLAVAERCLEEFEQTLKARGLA
In words: acetophenone assay, UV […] nm. It is filed as biochemical. Conditions: 5 mM galactose pre-oxidized in situ by FgrGaOx (catalase, HRP), 5 mM (S)-1-phenylethylamine, 20 µM PLP, 50 mM HEPES pH 7.5, 37 °C.

For the compound `O=C[C@@H](O)[C@H](O)[C@H](O)[C@@H](O)C=O` [oxidized galactose], the “acetophenone assay, UV 245 nm” value was “initial activity of CvATA on pyruvate and oxidized galactose”.

The values are drawn from publication PMC10898118, “Biocatalytic cascade to polysaccharide amination” (Biotechnology for Biofuels and Bioproducts, 2024).
